Experimental data as given in patent US11034717B2, “Farnesoid X receptor modulators” (Intercept Pharmaceuticals, Inc., priority 2015, dated 2021).

What was measured:
[1] = molecular target: hTGR5 (Homo sapiens (Human), UniProt Q8TDU6); experiment: HTR-FRET intracellular cAMP assay in NCI-H716 cells; type: cell-based; settings: Table 1; Ref LCA
[2] = Critical micellar concentration; type: physicochemical; settings: determined in […] NaCl water solution
Procedure: (§1) Physiochemical properties of a compound of the invention such as water solubility, critical micellar concentration, surface tension, and LogPA were determined using methods known in the art.

[3] = 1-octanol-water partition coefficient of ionized species; type: physicochemical
Procedure: as §1

Sequence of hTGR5 (Q8TDU6 whole entry): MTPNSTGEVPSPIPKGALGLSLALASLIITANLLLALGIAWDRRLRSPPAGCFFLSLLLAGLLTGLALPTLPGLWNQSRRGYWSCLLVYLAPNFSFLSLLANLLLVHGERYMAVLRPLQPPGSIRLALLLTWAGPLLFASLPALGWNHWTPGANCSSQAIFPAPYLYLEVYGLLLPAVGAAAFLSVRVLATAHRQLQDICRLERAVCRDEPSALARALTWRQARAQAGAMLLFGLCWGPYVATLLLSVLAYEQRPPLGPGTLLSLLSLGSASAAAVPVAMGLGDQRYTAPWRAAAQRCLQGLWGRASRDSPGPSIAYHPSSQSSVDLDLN

Row | Compound | EC50 [1] [µM] | CMC: Critical Micellar Concentration [2] [mM] | LogPA−: 1-octanol-water partition coefficient as ionized species [3]
1 | 6α-ethyl-3α,7α,23-trihydroxy-24-nor-5β-cholan-23-sulphate sodium salt [Compound B, reference compound] | 0.63 |  | 
2 | CC[C@H]1[C@@H](O)C2C3CCC(C(C)CC(C)C(=O)O)[C@@]3(C)[C@@H](O)CC2[C@@]2(C)CC[C@@H](O)C[C@@H]12 (stereo in doubt) [Compound C, 6α-ethyl-23(S)-methyl-3α,7α,12α trihydroxy-5β-cholan-24-oic acid, reference compound] |  | 2 | 1.4
3 | CC[C@H]1[C@@H](O)C2C3CC[C@H]([C@H](C)CC(=O)O)[C@@]3(C)C[C@H](O)C2[C@@]2(C)CC[C@@H](O)C[C@@H]12 (stereo partly drawn) [Compound 1, 3α,7α,11β-trihydroxy-6α-ethyl-24-nor-5β-cholan-23-oic acid] | > 100 |  | 
4 | CC[C@H]1[C@@H](O)C2C3C[C@H](O)[C@H]([C@H](C)CCC(=O)O)[C@@]3(C)CCC2[C@@]2(C)CC[C@@H](O)C[C@@H]12 (some centres unmarked) [Compound E, reference compound] |  | 5.9 | 1.6
5 | CC[C@H]1[C@@H](O)C2C3CC[C@H]([C@H](C)C[C@H](C)C(=O)O)[C@@]3(C)CCC2[C@@]2(C)CC[C@@H](O)C[C@@H]12 (stereo partly drawn) [Compound D, 6α-ethyl-23(R)-methyl chenodeoxycholic acid] |  |  | 2.9
6 | CC[C@H]1[C@@H](O)C2C3CC[C@H]([C@H](C)CCO)[C@@]3(C)C[C@H](O)C2[C@@]2(C)CC[C@@H](O)C[C@@H]12 (stereo partly drawn) [Compound 2, 3α,7α,11β-trihydroxy-6α-ethyl-24-nor-5β-cholan-23-ol] | 93 |  | 
7 | CC[C@H]1[C@@H](O)[C@@H]2[C@H]([C@@H](O)C[C@]3(C)[C@@H]([C@H](C)CCCO)CC[C@@H]23)[C@@]2(C)CC[C@@H](O)C[C@@H]12 [Compound 4, 3α,7α,11β-trihydroxy-6α-ethyl-5β-cholan-24-ol] | 13.7 ± 2.3 |  | 
8 | CC[C@H]1[C@@H](O)[C@@H]2[C@H](CC[C@]3(C)[C@@H]([C@H](C)CCC(=O)O)CC[C@@H]23)[C@@]2(C)CC[C@@H](O)C[C@@H]12 [Compound A, 6α-ethyl-3α,7α-dihydroxy-5β-cholan-24-oic acid, reference compound] |  | 2.9 | 2.5
